Source: ChEMBL document CHEMBL3091293, “The synthesis and biodistribution of [(11)C]metformin as a PET probe to study hepatobiliary transport mediated by the multi-drug and toxin extrusion transporter 1 (MATE1) in vivo” (Bioorg Med Chem, 2013)

Assays:
Type in all cases: ADME, organism-based
[1] = Metabolic stability in urine of mouse at 5 +/- 2.3 MBq/kg, iv measured until 30 to 60 mins by HPLC analysis in presence of MATE1 inhibitor pyrimethamine; conditions: in vivo
[2] = test system: Liver; assay: Drug uptake in liver of ddY mouse at 127 +/- 35 MBq/kg, iv measured up to 6 to 7 mins by microPET image analysis in presence of MATE1 inhibitor pyrimethamine; conditions: in vivo
[3] = test system: Mus musculus; assay: Biodistribution in remaining body parts of ddY mouse at 5.6 +/- 2.1 MBq, iv measured per gram of tissue at 45 mins by gamma-ray counting analysis; conditions: in vivo, 0.75 h
[4] = test system: Mus musculus; assay: Biodistribution in remaining body parts of ddY mouse at 5.6 +/- 2.1 MBq, iv measured per gram of tissue at 15 mins by gamma-ray counting analysis; conditions: in vivo, 0.25 h
[5] = test system: Mus musculus; assay: Biodistribution in urinary bladder of ddY mouse at 14.6 +/- 2.1 MBq, iv measured per gram of tissue at 27.5 mins by PET image analysis; conditions: in vivo
[6] = test system: Kidney; assay: Biodistribution in kidney of ddY mouse at 14.6 +/- 2.1 MBq, iv measured per gram of tissue at 27.5 mins by PET image analysis; conditions: in vivo
[7] = test system: Mus musculus; assay: Biodistribution in remaining body parts of ddY mouse at 14.6 +/- 2.1 MBq, iv measured per gram of tissue at 14 mins by PET image analysis; conditions: in vivo
[8] = test system: Mus musculus; assay: Biodistribution in urinary bladder of ddY mouse at 14.6 +/- 2.1 MBq, iv measured per gram of tissue at 14 mins by PET image analysis; conditions: in vivo
[9] = test system: Mus musculus; assay: Biodistribution in urinary bladder of ddY mouse at 14.6 +/- 2.1 MBq, iv measured per gram of tissue at 5 mins by PET image analysis; conditions: in vivo
[10] = test system: Liver; assay: Biodistribution in liver of ddY mouse at 14.6 +/- 2.1 MBq, iv measured per gram of tissue at 5 mins by PET image analysis; conditions: in vivo
[11] = test system: Thyroid gland; assay: Biodistribution in thyroid of ddY mouse at 5.6 +/- 2.1 MBq, iv measured per gram of tissue at 90 mins by gamma-ray counting analysis; conditions: in vivo, 1.5 h
[12] = test system: Mus musculus; assay: Biodistribution in stomach wall of ddY mouse at 5.6 +/- 2.1 MBq, iv measured per gram of tissue at 90 mins by gamma-ray counting analysis; conditions: in vivo, 1.5 h
[13] = test system: Lung; assay: Biodistribution in lung of ddY mouse at 5.6 +/- 2.1 MBq, iv measured per gram of tissue at 90 mins by gamma-ray counting analysis; conditions: in vivo, 1.5 h
[14] = test system: Kidney; assay: Biodistribution in kidney of ddY mouse at 5.6 +/- 2.1 MBq, iv measured per gram of tissue at 90 mins by gamma-ray counting analysis; conditions: in vivo, 1.5 h
[15] = test system: Pancreas; assay: Biodistribution in pancreas of ddY mouse at 5.6 +/- 2.1 MBq, iv measured per gram of tissue at 60 mins by gamma-ray counting analysis; conditions: in vivo, 1 h
[16] = test system: Mus musculus; assay: Biodistribution in small intestine wall of ddY mouse at 5.6 +/- 2.1 MBq, iv measured per gram of tissue at 60 mins by gamma-ray counting analysis; conditions: in vivo, 1 h
[17] = test system: Mus musculus; assay: Biodistribution in stomach wall of ddY mouse at 5.6 +/- 2.1 MBq, iv measured per gram of tissue at 60 mins by gamma-ray counting analysis; conditions: in vivo, 1 h
[18] = test system: Lung; assay: Biodistribution in lung of ddY mouse at 5.6 +/- 2.1 MBq, iv measured per gram of tissue at 60 mins by gamma-ray counting analysis; conditions: in vivo, 1 h
[19] = test system: Mus musculus; assay: Biodistribution in urinary bladder/urine of ddY mouse at 5.6 +/- 2.1 MBq, iv measured per gram of tissue at 45 mins by gamma-ray counting analysis; conditions: in vivo, 0.75 h
[20] = test system: Pancreas; assay: Biodistribution in pancreas of ddY mouse at 5.6 +/- 2.1 MBq, iv measured per gram of tissue at 45 mins by gamma-ray counting analysis; conditions: in vivo, 0.75 h
[21] = test system: Mus musculus; assay: Biodistribution in large intestine wall of ddY mouse at 5.6 +/- 2.1 MBq, iv measured per gram of tissue at 45 mins by gamma-ray counting analysis; conditions: in vivo, 0.75 h
[22] = test system: Mus musculus; assay: Biodistribution in small intestine wall of ddY mouse at 5.6 +/- 2.1 MBq, iv measured per gram of tissue at 45 mins by gamma-ray counting analysis; conditions: in vivo, 0.75 h
[23] = test system: Lung; assay: Biodistribution in lung of ddY mouse at 5.6 +/- 2.1 MBq, iv measured per gram of tissue at 45 mins by gamma-ray counting analysis; conditions: in vivo, 0.75 h
[24] = test system: Liver; assay: Biodistribution in liver of ddY mouse at 5.6 +/- 2.1 MBq, iv measured per gram of tissue at 45 mins by gamma-ray counting analysis; conditions: in vivo, 0.75 h
[25] = test system: Mus musculus; assay: Biodistribution in urinary bladder/urine of ddY mouse at 5.6 +/- 2.1 MBq, iv measured per gram of tissue at 35 mins by gamma-ray counting analysis; conditions: in vivo
[26] = test system: Mus musculus; assay: Biodistribution in large intestine wall of ddY mouse at 5.6 +/- 2.1 MBq, iv measured per gram of tissue at 35 mins by gamma-ray counting analysis; conditions: in vivo
[27] = test system: Spleen; assay: Biodistribution in spleen of ddY mouse at 5.6 +/- 2.1 MBq, iv measured per gram of tissue at 35 mins by gamma-ray counting analysis; conditions: in vivo
[28] = test system: Kidney; assay: Biodistribution in kidney of ddY mouse at 5.6 +/- 2.1 MBq, iv measured per gram of tissue at 35 mins by gamma-ray counting analysis; conditions: in vivo
[29] = test system: Liver; assay: Biodistribution in liver of ddY mouse at 5.6 +/- 2.1 MBq, iv measured per gram of tissue at 35 mins by gamma-ray counting analysis; conditions: in vivo
[30] = test system: Pancreas; assay: Biodistribution in pancreas of ddY mouse at 5.6 +/- 2.1 MBq, iv measured per gram of tissue at 30 mins by gamma-ray counting analysis; conditions: in vivo, 0.5 h
[31] = test system: Mus musculus; assay: Biodistribution in large intestine wall of ddY mouse at 5.6 +/- 2.1 MBq, iv measured per gram of tissue at 30 mins by gamma-ray counting analysis; conditions: in vivo, 0.5 h
[32] = test system: Mus musculus; assay: Biodistribution in stomach wall of ddY mouse at 5.6 +/- 2.1 MBq, iv measured per gram of tissue at 30 mins by gamma-ray counting analysis; conditions: in vivo, 0.5 h
[33] = test system: Kidney; assay: Biodistribution in kidney of ddY mouse at 5.6 +/- 2.1 MBq, iv measured per gram of tissue at 30 mins by gamma-ray counting analysis; conditions: in vivo, 0.5 h
[34] = test system: Thyroid gland; assay: Biodistribution in thyroid of ddY mouse at 5.6 +/- 2.1 MBq, iv measured per gram of tissue at 15 mins by gamma-ray counting analysis; conditions: in vivo, 0.25 h
[35] = test system: Mus musculus; assay: Biodistribution in large intestine wall of ddY mouse at 5.6 +/- 2.1 MBq, iv measured per gram of tissue at 15 mins by gamma-ray counting analysis; conditions: in vivo, 0.25 h
[36] = test system: Kidney; assay: Biodistribution in kidney of ddY mouse at 5.6 +/- 2.1 MBq, iv measured per gram of tissue at 15 mins by gamma-ray counting analysis; conditions: in vivo, 0.25 h
[37] = test system: Liver; assay: Biodistribution in liver of ddY mouse at 5.6 +/- 2.1 MBq, iv measured per gram of tissue at 15 mins by gamma-ray counting analysis; conditions: in vivo, 0.25 h

Stability [1]: Stable
Drug uptake [2]: Active
Drug uptake [3]: 17.28 %ID
Drug uptake [4]: 54.581 %ID
Drug uptake [5]: 66.041 %ID
Drug uptake [6]: 4.394 %ID
Drug uptake [7]: 36.878 %ID
Drug uptake [8]: 56.419 %ID
Drug uptake [9]: 37.19 %ID
Drug uptake [10]: 4.327 %ID
Drug uptake [11]: 0.013 %ID
Drug uptake [12]: 0.14 %ID
Drug uptake [13]: 0.128 %ID
Drug uptake [14]: 0.236 %ID
Drug uptake [15]: 0.281 %ID
Drug uptake [16]: 2.543 %ID
Drug uptake [17]: 0.169 %ID
Drug uptake [18]: 0.136 %ID
Drug uptake [19]: 78.906 %ID
Drug uptake [20]: 0.117 %ID
Drug uptake [21]: 0.208 %ID
Drug uptake [22]: 2.128 %ID
Drug uptake [23]: 0.135 %ID
Drug uptake [24]: 0.827 %ID
Drug uptake [25]: 74.695 %ID
Drug uptake [26]: 0.342 %ID
Drug uptake [27]: 0.145 %ID
Drug uptake [28]: 0.274 %ID
Drug uptake [29]: 1.478 %ID
Drug uptake [30]: 0.405 %ID
Drug uptake [31]: 0.352 %ID
Drug uptake [32]: 0.173 %ID
Drug uptake [33]: 1.111 %ID
Drug uptake [34]: 0.008 %ID
Drug uptake [35]: 0.659 %ID
Drug uptake [36]: 1.181 %ID
Drug uptake [37]: 3.817 %ID
SMILES: CN([11CH3])C(=N)NC(=N)N
